{"source": "patent US12282015B2", "about": "“Systems and methods for testing and screening using compound bound substrates” (Cerus Corporation, priority 2016, dated 2025)", "system": "human RBC's", "assay": "Binding of compound to RBC substrate and stability of the surface-bound moiety, anti-acridine antibody staining by flow cytometry (MFI)", "type": "cell-based", "conditions": "at 37° C.; 0.2 mM compound, 2.0 mM GSH, overnight; mAb and polyAb staining", "method": "A study was performed to assess binding to RBC substrate by the compound 5-220, which is a non-frangible analog of S-303. This study also compared the stability of the surface bound moiety of the 5-220 compound to the stability of a similarly bound frangible S-303. More specifically, glutathione (GSH) quencher and the 5-220 compound were added to human RBC's substrate at concentrations of 2.0 mM and 0.2 mM, respectively, and then incubated overnight at 37° C. or 4° C. For comparison, GSH quencher and the frangible S-303 compound were similarly added to human RBC's at concentrations of 2.0 mM and 0.2 mM, respectively, and incubated overnight at 37° C. or 4° C. Both the non-frangible 5-220 and frangible S-303 compounds comprise an acridine moiety as part of their structures. Following incubation, the GSH/S-220 and GSH/S-303 treated RBC's were stained with either a mouse monoclonal (mAb) or rabbit polyclonal (polyAb) anti-acridine antibody (also at 4° C. or 37° C.), and the samples analyzed for antibody binding by flow cytometry using standard methods (quantitated as MFI). Both the mAb and polyAb anti-acridine antibodies were generated using the compound 5-197 for immunization."}
{"molecule": "O=C(CCNc1c2ccccc2nc2ccccc12)OCCN(CCCl)CCCl", "note": "[S-303, β-alanine, N-(acridin-9-yl), 2-[bis(2-chloroethyl)amino]ethyl ester]", "values": [{"measurement": "stability of binding to RBC's", "value": "less stable than 5-220 binding to RBC's"}]}
